Test results reported in article PMC11678797, “A Repurposed Drug Selection Pipeline to Identify CNS-Penetrant Drug Candidates for Glioblastoma” (Pharmaceuticals, 2024).

Key:
[1] = target: T1, human P-gp (ABCB1) (Homo sapiens, UniProt P08183); test: Concentration equilibrium transport assay (CETA), LLC-PK1 cells transduced with human ABCB1; type: in vitro ADME; conditions: omacetaxine 100 nM, up to 4 h
T1 construct: expressed in transfected cells; host or cells: LLC-PK1 (pig kidney) cells transduced with human ABCB1 (LLC-MDR1)
Procedure: (§1) In vitro transport studies were performed using the LLC pig kidney cell line (LLC-PK1) and sub-lines transduced with murine Abcb1a (LLC-Mdr1a) or human ABCB1 (LLC-MDR1). Similarly, in vitro transport studies were conducted in the parental Madin–Darby canine kidney (MDCK) type II cell line (MDCK-Parent) and murine Abcg2 (MDCK-Bcrp1) or human ABCG2 (MDCK-BCRP) transduced sublines. Concentration equilibrium transport assays (CETA) were performed as previously described. Briefly, cells were grown on polycarbonate membrane filters (3.0 µm pores, 24 mm diameter; Costar Corning, NY, USA) for 4 days. Next, 2 mL of MEM medium containing 10% FCS and omacetaxine (100 nM) was added to both the apical and basal compartments. Then, [14C]-inulin ([…]) was added basolateral to check the membrane integrity. Zosuquidar 1 μM was added to all wells containing MDCK cells to inhibit endogenous (canine) ABCB1. […] The integrity of the membrane was checked by taking 20 μL samples from both apical and basolateral sides for radioactivity counting. […] OMA concentrations were measured using an LC-MS/MS system that consisted of an UltiMate 3000 LC System (Dionex, Sunnyvale, CA, USA) and an API 4000 mass spectrometer (Sciex, Framingham, MA, USA).

[2] = target: T2, murine P-gp (Abcb1a) (Mus musculus, UniProt P21447); test: Concentration equilibrium transport assay (CETA), LLC-PK1 cells transduced with murine Abcb1a; type: in vitro ADME; conditions: omacetaxine 100 nM, up to 4 h
T2 construct: expressed in transfected cells; host or cells: LLC-PK1 (pig kidney) cells transduced with murine Abcb1a (LLC-Mdr1a)
Procedure: as §1

[3] = target: T3, human BCRP (ABCG2) (Homo sapiens, UniProt Q9UNQ0); test: Concentration equilibrium transport assay (CETA), MDCK cells transduced with human ABCG2, with zosuquidar; type: in vitro ADME; conditions: omacetaxine 100 nM, zosuquidar 1 μM, up to 4 h
T3 construct: expressed in transfected cells; host or cells: MDCK type II (canine kidney) cells transduced with human ABCG2 (MDCK-BCRP)
T3 sequence (Q9UNQ0 1-655): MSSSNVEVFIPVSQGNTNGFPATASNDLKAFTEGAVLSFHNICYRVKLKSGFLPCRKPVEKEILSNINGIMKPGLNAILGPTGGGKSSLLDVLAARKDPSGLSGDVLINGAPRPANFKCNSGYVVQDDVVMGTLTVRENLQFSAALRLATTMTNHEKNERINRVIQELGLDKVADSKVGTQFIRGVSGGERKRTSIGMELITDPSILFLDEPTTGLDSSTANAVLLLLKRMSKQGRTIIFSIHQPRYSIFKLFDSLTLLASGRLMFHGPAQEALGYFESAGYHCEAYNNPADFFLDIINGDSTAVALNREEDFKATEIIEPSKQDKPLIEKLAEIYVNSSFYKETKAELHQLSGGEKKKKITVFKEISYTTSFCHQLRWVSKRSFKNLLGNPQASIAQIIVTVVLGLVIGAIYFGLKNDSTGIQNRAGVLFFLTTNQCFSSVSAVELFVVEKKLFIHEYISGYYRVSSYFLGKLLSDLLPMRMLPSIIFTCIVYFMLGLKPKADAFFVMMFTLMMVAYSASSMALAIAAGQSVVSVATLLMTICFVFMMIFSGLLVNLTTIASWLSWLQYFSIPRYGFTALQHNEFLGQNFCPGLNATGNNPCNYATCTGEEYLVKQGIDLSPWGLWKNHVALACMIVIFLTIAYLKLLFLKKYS
Procedure: as §1

[4] = source not stated; cited from earlier work

T2 sequence (P21447 whole entry): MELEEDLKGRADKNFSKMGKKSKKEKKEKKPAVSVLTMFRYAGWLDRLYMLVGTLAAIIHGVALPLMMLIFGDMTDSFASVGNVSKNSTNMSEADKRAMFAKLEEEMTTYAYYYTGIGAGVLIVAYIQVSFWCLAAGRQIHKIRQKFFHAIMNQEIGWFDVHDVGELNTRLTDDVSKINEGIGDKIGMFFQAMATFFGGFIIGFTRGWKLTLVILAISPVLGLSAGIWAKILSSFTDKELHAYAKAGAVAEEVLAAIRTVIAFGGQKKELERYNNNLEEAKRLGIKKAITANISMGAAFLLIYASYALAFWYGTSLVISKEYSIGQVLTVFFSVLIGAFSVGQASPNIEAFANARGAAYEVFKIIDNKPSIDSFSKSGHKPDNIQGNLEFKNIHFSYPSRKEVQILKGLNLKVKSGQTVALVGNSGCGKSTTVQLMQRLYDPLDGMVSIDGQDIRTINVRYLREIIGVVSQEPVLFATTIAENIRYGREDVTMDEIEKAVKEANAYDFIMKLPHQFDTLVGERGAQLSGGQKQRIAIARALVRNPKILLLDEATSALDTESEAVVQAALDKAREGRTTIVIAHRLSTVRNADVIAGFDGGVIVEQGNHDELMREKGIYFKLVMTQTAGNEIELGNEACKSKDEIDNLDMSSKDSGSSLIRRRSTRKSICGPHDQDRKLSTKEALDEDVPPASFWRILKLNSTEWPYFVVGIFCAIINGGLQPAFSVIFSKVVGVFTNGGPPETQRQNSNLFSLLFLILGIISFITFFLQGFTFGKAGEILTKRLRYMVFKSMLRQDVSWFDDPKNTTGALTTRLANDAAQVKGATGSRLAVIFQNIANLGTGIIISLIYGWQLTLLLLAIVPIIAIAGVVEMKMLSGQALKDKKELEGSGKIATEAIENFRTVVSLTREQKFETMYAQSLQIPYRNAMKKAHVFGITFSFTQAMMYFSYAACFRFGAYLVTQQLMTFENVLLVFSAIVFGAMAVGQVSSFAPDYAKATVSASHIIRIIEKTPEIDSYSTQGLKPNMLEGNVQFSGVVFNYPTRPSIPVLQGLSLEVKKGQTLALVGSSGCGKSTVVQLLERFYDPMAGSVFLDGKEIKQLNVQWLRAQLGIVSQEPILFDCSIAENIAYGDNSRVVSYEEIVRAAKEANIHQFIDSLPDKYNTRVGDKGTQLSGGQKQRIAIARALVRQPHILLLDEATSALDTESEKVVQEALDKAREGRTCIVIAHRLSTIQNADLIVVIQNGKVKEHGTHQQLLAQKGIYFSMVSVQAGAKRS
T1 sequence (P08183 whole entry): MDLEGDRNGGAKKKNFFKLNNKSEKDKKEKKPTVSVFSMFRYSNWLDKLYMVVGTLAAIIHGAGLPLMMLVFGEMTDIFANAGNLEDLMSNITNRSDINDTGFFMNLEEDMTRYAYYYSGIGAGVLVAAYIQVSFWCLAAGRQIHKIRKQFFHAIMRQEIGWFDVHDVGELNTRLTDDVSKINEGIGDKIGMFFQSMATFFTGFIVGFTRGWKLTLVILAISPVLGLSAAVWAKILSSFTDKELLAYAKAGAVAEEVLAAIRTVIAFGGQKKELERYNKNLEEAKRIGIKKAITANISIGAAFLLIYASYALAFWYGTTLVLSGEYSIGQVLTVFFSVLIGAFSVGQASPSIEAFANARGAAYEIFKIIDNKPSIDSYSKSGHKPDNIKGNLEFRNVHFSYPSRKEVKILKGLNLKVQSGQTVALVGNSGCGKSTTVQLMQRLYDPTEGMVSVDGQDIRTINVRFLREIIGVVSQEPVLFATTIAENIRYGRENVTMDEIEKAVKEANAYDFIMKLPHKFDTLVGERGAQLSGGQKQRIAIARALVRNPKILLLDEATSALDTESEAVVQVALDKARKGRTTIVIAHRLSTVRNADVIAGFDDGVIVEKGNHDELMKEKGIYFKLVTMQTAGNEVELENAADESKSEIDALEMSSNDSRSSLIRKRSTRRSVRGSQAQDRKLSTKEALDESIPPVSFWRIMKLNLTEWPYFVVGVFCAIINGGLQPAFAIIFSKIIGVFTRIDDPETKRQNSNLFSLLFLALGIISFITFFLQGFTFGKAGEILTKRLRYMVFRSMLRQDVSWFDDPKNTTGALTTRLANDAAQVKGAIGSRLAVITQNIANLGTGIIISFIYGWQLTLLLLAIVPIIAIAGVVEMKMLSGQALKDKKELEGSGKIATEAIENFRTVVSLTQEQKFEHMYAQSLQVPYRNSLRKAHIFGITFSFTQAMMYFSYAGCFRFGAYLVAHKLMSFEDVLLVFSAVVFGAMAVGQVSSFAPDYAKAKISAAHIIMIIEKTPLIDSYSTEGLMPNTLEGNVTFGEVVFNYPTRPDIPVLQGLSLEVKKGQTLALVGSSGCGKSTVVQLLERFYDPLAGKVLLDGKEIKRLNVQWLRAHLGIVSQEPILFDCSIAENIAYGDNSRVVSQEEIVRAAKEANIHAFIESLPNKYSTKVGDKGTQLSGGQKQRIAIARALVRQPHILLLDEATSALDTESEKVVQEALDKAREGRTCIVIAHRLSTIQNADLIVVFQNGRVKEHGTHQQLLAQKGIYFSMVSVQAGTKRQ

Structure (SMILES): COC(=O)C[C@](O)(CCCC(C)(C)O)C(=O)O[C@@H]1C(OC)=C[C@]23CCCN2CCc2cc4c(cc2[C@H]13)OCO4 [OMA, Omacetaxine mepesuccinate]
- substrate of P-gp (translocation basolateral to apical) [1]: weak substrate
- substrate of P-gp (translocation basolateral to apical) [2]: weak substrate
- substrate of BCRP (translocation between apical and basolateral compartments) [3]: not a substrate
- logP value [4]: 1.88
